Measured values from patent US20220296573A1, “NOVEL COMPOUNDS AND PHARMACEUTICAL COMPOSITIONS THEREOF FOR THE TREATMENT OF INFLAMMATORY DISORDERS” (Galapagos NV, priority 2019, published 2022).

What was measured:
Type in all cases: cell-based
[1] = tested on: LPS driven NFκB-reporter activity; assay: THP1-Lucia NFκB reporter assay, LPS trigger; conditions: THP-1-Lucia NFκB cells, LPS 2.5 ng/mL, 24 h; read-out: average pEC50, LPS driven NFκB-reporter activity (converted)
Excerpt: (§1) This assay is used to evaluate the IRAK4 selectivity and potency of the compounds of the invention upon IRAK4 dependent (LPS and IL-1β) and independent triggering (TNFα), in a THP1-Lucia NFκB reporter assay.
(§2) THP-1-Lucia NFκB cells (Invivogen—5, rue Jean Rodier 31400 Toulouse France—cat #thp1-nfkb) were cultivated as recommended by the supplier using split cycles each cycle comprising a succession of thawing/expansion/seeding. The data reported were generated using cells having between 3 to 9 cycles. On the day of the experiment THP-1-Lucia NFκB cells were counted and seeded at a density of 1,000,000 cells/mL in culture medium (RPMI 1640 (Gibco, Cat #52400-025)+10% FBS (Sigma, Cat #F7524-500ML)+1% P/S (Gibco, Cat #15140-122)) by pipetting 54 μL/well in a 384 well plate. […]
(§3) For the readout, supernatant samples were thawed on ice and 5 μL sample was transferred from each well to a new 384-well plate. 20 μL of Quanti-Luc solution (Quanti-Luc powder (Invivogen, Cat #rep-qlc1) dissolved in 25 mL sterile water as indicated by the manufacturer) was added to each well after which luminescence was immediately measured on an Envision instrument.
(§4) To measure the inhibition of LPS/TNFα/IL-1β-induced NFκB-reporter activity, percentage inhibition (PIN) values were calculated for all concentrations tested, compared to controls. […]

[2] = tested on: IL-1β driven NFκB-reporter activity; assay: THP1-Lucia NFκB reporter assay, IL-1β trigger; conditions: THP-1-Lucia NFκB cells, IL-1β 3 ng/mL, 24 h; read-out: average pEC50, IL-1β driven NFκB-reporter activity (converted)
Excerpt: as §1, §2, §3, §4

[3] = tested on: TNFα mediated NFκB-reporter activity; assay: THP1-Lucia NFκB reporter assay, TNFα trigger; conditions: THP-1-Lucia NFκB cells, TNFα 10 ng/mL, 24 h
Excerpt: as §1, §2, §3, §4

EC50 [1]: 617 nM
EC50 [2]: 39.8 nM
SMILES: COc1cc2nc(C3COCCO3)cn2cc1NC(=O)c1cccn(C2CC2)c1=O (racemic) [Compound 1, 1-cyclopropyl-N-[2-(1,4-dioxan-2-yl)-7-methoxy-imidazo[1,2-a]pyridin-6-yl]-2-oxo-pyridine-3-carboxamide]
activity on TNFα mediated NFκB-reporter activity [3]: no activity was observed
